Experimental data as given in patent US8148373B2, “Compounds” (AstraZeneca AB, priority 2008, dated 2012).

Experiments:
[1] = molecular target: T1, human muscarinic acetylcholine M3 receptor (M3-ACh) (Homo sapiens, UniProt P20309); assay: Muscarinic 3 Receptor Binding Assay, % inhibition specific binding at 1 μM; conditions: 1 μM compound, % inhibition specific [3H]-NMS binding
T1 construct: expressed in transfected cells; host or cells: CHO-K1 (Chinese Hamster Ovary) cell membranes
Procedure, shortened: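 Competition binding of 0.1 nM [3H]NMS to membranes from CHO-K1 cells expressing human M3, SPA format, with compound at 1 μM in 20 mM HEPES pH 7.4, 5 mM MgCl2, 1% DMSO. Incubated 16 h at room temperature; non-specific binding defined by 1 μM atropine; value is % inhibition of specific binding.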

[2] = molecular target: T2, Adrenergic β2 (H292 cells) (Homo sapiens, UniProt P07550); assay: Assay for Adrenergic β2 Mediated cAMP Production (concentration response, AlphaScreen cAMP detection); format: cell-based; conditions: for EC50: cAMP production, 60 minutes at room temperature, 300 μM rolipram, read-out: β2 pEC50 (converted); for β2 Intrinsic activity: fraction relative to the maximum activity determined for formoterol
T2 construct: endogenous in cells; host or cells: H292 cells
T2 sequence (P07550 whole entry): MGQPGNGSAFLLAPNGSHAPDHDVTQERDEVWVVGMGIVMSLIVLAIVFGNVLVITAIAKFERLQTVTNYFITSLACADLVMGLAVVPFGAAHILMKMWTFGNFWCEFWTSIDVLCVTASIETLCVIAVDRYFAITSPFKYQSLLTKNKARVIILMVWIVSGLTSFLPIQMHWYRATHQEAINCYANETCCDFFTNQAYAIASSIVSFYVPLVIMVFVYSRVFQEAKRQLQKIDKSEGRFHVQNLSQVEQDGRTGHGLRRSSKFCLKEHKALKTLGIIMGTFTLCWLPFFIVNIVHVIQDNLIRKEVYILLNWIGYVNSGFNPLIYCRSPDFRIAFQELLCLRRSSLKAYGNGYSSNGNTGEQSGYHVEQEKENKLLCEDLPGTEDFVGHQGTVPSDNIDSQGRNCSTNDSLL
Procedure, shortened: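 H292 cells plated overnight, pre-treated with rolipram (300 μM final) 10 min, then compound 60 min at room temperature in HBSS/10 mM HEPES pH7.4/5 mM glucose, 1% DMSO. Lysate cAMP read by AlphaScreen against a cAMP standard curve; 4-parameter fit gives pEC50 and intrinsic activity as fraction of formoterol maximum.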

[3] = molecular target: T2, Adrenergic β2 (H292 cells); assay: Adrenergic β2 Mediated cAMP Production, single concentration 1 μM; format: cell-based; conditions: percentage of the maximum response generated by 1E-07M formoterol; for activation at 1 µM: NCI-H292, 1 μM compound, read-out: β2 (% effect at 1 μM); for β2 (% effect at 1 μM): 1 μM compound
Procedure, shortened: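 H292 cells were plated overnight, pre-treated with 300 μM rolipram for 10 min, then exposed to compound at 1 μM final (1% DMSO) for 60 min at room temperature. cAMP in the lysates was measured by AlphaScreen against a standard curve and expressed as % of the maximal response to 1E-07M formoterol.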

[4] = molecular target: T1, human muscarinic acetylcholine M3 receptor (M3-ACh); assay: Muscarinic 3 Receptor Binding Assay ([3H]NMS competition, SPA); conditions: [3H]NMS 0.1 nM, CHO-K1 cell membranes, 16 hours at room temperature; read-out: M3 pIC50 (converted)
Procedure, shortened: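 Competition SPA binding of 0.1 nM [3H]NMS (quarter Kd) to membranes from CHO-K1 cells expressing human M3, in 20 mM HEPES pH 7.4, 5 mM MgCl2, 1% DMSO. Incubated 16 h at room temperature; non-specific binding with 1 µM atropine. pIC50 from 50% reduction of specific binding.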

T1 sequence (P20309 whole entry): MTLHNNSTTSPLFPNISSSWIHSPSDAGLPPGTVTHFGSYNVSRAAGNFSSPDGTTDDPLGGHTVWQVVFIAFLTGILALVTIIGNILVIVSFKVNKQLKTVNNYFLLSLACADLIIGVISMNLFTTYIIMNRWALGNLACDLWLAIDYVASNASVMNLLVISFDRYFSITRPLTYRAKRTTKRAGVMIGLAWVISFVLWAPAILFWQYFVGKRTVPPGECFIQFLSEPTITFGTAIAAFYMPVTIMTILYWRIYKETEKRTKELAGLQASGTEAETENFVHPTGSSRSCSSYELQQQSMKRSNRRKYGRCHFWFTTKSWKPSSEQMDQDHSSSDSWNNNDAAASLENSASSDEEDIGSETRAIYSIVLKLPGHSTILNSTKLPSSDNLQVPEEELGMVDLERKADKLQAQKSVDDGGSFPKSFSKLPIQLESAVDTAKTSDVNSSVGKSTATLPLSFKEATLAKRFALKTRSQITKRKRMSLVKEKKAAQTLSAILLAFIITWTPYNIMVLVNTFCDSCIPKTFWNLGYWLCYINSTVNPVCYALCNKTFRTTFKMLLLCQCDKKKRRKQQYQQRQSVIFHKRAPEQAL

**Q.** With Cc1ccc(C(=O)N2CCOC3(CCN(Cc4cc(F)cc(CCNC[C@H](O)c5ccc(O)c6[nH]c(=O)sc56)c4)CC3)C2)s1 [Example 118, (R)-7-(2-(3-fluoro-5-((4-(5-methylthiophene-2-carbonyl)-1-oxa-4,9-diazaspiro[5.5]undecan-9-yl)methyl)phenethylamino)-1-hydroxyethyl)-4-hydroxybenzo[d]thiazol-2(3H)-one] as the molecule, how does the inhibition at 1 µM [1] read?
**A.** 95%

**Q.** What about the EC50 [2] of the same molecule?
**A.** 6.31 nM

**Q.** And the “β2 Intrinsic activity” value [2]?
**A.** 1

**Q.** What about the activation at 1 µM [3] of the same molecule?
**A.** 101%

**Q.** And the IC50 [4]?
**A.** 20 nM

**Q.** How did the inhibition at 1 µM [1] turn out when O=C(c1ccc(Cl)s1)N1CCOC2(CCN(Cc3cc(F)cc(CCNC[C@H](O)c4ccc(O)c5[nH]c(=O)sc45)c3)CC2)C1 [Example 124, (R)-7-(2-(3-((4-(5-chlorothiophene-2-carbonyl)-1-oxa-4,9-diazaspiro[5.5]undecan-9-yl)methyl)-5-fluorophenethylamino)-1-hydroxyethyl)-4-hydroxybenzo[d]thiazol-2(3H)-one] was run?
**A.** 97%

**Q.** And the EC50 [2]?
**A.** 3.98 nM

**Q.** What about the “β2 Intrinsic activity” value [2] of the same molecule?
**A.** 0.9

**Q.** And the activation at 1 µM [3]?
**A.** 100%

**Q.** And the IC50 [4]?
**A.** 12.6 nM

**Q.** Which inhibition at 1 µM [1] does the source give for CC(C)(C)CC(=O)N1CCOC2(CCN(Cc3cc(F)cc(CCNC[C@H](O)c4ccc(O)c5[nH]c(=O)sc45)c3)CC2)C1 [Example 130, (R)-7-(2-(3-((4-(3,3-dimethylbutanoyl)-1-oxa-4,9-diazaspiro[5.5]undecan-9-yl)methyl)-5-fluorophenethylamino)-1-hydroxyethyl)-4-hydroxybenzo[d]thiazol-2(3H)-one] here?
**A.** 90%

**Q.** What about the EC50 [2] of the same molecule?
**A.** 12.6 nM

**Q.** What about the “β2 Intrinsic activity” value [2] of the same molecule?
**A.** 1

**Q.** What about the activation at 1 µM [3] of the same molecule?
**A.** 109%

**Q.** What about the IC50 [4] of the same molecule?
**A.** 79.4 nM

**Q.** Which results are given for O=C(c1cccc2cc[nH]c12)N1CCOC2(CCN(Cc3cc(F)cc(CCNC[C@H](O)c4ccc(O)c5[nH]c(=O)sc45)c3)CC2)C1 [Example 141, (R)-7-(2-(3-((4-(1H-indole-7-carbonyl)-1-oxa-4,9-diazaspiro[5.5]undecan-9-yl)methyl)-5-fluorophenethylamino)-1-hydroxyethyl)-4-hydroxybenzo[d]thiazol-2(3H)-one]?
**A.** inhibition at 1 µM [1]: 91%; EC50 [2]: 6.31 nM; β2 Intrinsic activity [2]: 0.9; activation at 1 µM [3]: 105%; IC50 [4]: 25.1 nM

**Q.** How did the inhibition at 1 µM [1] turn out when O=C(c1ccc2c(c1)CCO2)N1CCOC2(CCN(Cc3cc(F)cc(CCNC[C@H](O)c4ccc(O)c5[nH]c(=O)sc45)c3)CC2)C1 [Example 149, (R)-7-(2-(3-((4-(2,3-dihydrobenzofuran-5-carbonyl)-1-oxa-4,9-diazaspiro[5.5]undecan-9-yl)methyl)-5-fluorophenethylamino)-1-hydroxyethyl)-4-hydroxybenzo[d]thiazol-2(3H)-one] was run?
**A.** 92%

**Q.** And the EC50 [2]?
**A.** 7.94 nM

**Q.** And the “β2 Intrinsic activity” value [2]?
**A.** 0.9

**Q.** And the activation at 1 µM [3]?
**A.** 113%

**Q.** What about the IC50 [4] of the same molecule?
**A.** 25.1 nM

**Q.** Which results are given for O=C(c1ccc2occc2c1)N1CCOC2(CCN(Cc3cc(F)cc(CCNC[C@H](O)c4ccc(O)c5[nH]c(=O)sc45)c3)CC2)C1 [Example 173, (R)-7-(2-(3-((4-(benzofuran-5-carbonyl)-1-oxa-4,9-diazaspiro[5.5]undecan-9-yl)methyl)-5-fluorophenethylamino)-1-hydroxyethyl)-4-hydroxybenzo[d]thiazol-2(3H)-one]?
**A.** inhibition at 1 µM [1]: 99%; EC50 [2]: 2.51 nM; β2 Intrinsic activity [2]: 0.8; activation at 1 µM [3]: 93%; IC50 [4]: 7.94 nM

**Q.** Which results are given for O=C(c1ccc2cccnc2c1)N1CCOC2(CCN(Cc3cc(F)cc(CCNC[C@H](O)c4ccc(O)c5[nH]c(=O)sc45)c3)CC2)C1 [Example 178, (R)-7-(2-(3-fluoro-5-((4-(quinoline-7-carbonyl)-1-oxa-4,9-diazaspiro[5.5]undecan-9-yl)methyl)phenethylamino)-1-hydroxyethyl)-4-hydroxybenzo[d]thiazol-2(3H)-one]?
**A.** inhibition at 1 µM [1]: 89%; EC50 [2]: 5.01 nM; β2 Intrinsic activity [2]: 0.8; activation at 1 µM [3]: 94%; IC50 [4]: 31.6 nM

**Q.** For O=C(c1ccc(Cl)s1)N1CCOC2(CCN(CCCCCCCCCNC[C@H](O)c3ccc(O)c4[nH]c(=O)sc34)CC2)C1 [Example 190, (R)-7-(2-(9-(4-(5-chlorothiophene-2-carbonyl)-1-oxa-4,9-diazaspiro[5.5]undecan-9-yl)nonylamino)-1-hydroxyethyl)-4-hydroxybenzo[d]thiazol-2(3H)-one], which inhibition at 1 µM [1] is on record?
**A.** 99%

**Q.** And the EC50 [2]?
**A.** 12.6 nM

**Q.** What about the “β2 Intrinsic activity” value [2] of the same molecule?
**A.** 0.9

**Q.** What about the activation at 1 µM [3] of the same molecule?
**A.** 77%

**Q.** And the IC50 [4]?
**A.** 2 nM

**Q.** Cc1ccc(C(=O)N2CCOC3(CCN(CCCCCCCCCNC[C@H](O)c4ccc(O)c5[nH]c(=O)sc45)CC3)C2)o1 [Example 198, (R)-4-hydroxy-7-(1-hydroxy-2-(9-(4-(5-methylfuran-2-carbonyl)-1-oxa-4,9-diazaspiro[5.5]undecan-9-yl)nonylamino)ethyl)benzo[d]thiazol-2(3H)-one] was tested. Which inhibition at 1 µM [1] did it give?
**A.** 99%

**Q.** What about the EC50 [2] of the same molecule?
**A.** 12.6 nM

**Q.** What about the “β2 Intrinsic activity” value [2] of the same molecule?
**A.** 0.8

**Q.** And the activation at 1 µM [3]?
**A.** 82%

**Q.** And the IC50 [4]?
**A.** 3.16 nM

**Q.** Which results are given for Cc1nc(C(=O)N2CCOC3(CCN(CCCCCCCCCNC[C@H](O)c4ccc(O)c5[nH]c(=O)sc45)CC3)C2)c(C)s1 [Example 201, (R)-7-(2-(9-(4-(2,5-dimethylthiazole-4-carbonyl)-1-oxa-4,9-diazaspiro[5.5]undecan-9-yl)nonylamino)-1-hydroxyethyl)-4-hydroxybenzo[d]thiazol-2(3H)-one]?
**A.** inhibition at 1 µM [1]: 98%; EC50 [2]: 31.6 nM; β2 Intrinsic activity [2]: 0.9; activation at 1 µM [3]: 105%; IC50 [4]: 6.31 nM

**Q.** How did the inhibition at 1 µM [1] turn out when Cc1cc(C(=O)N2CCOC3(CCN(CCCCCCCCCNC[C@H](O)c4ccc(O)c5[nH]c(=O)sc45)CC3)C2)c(C)s1 [Example 202, (R)-7-(2-(9-(4-(2,5-dimethylthiophene-3-carbonyl)-1-oxa-4,9-diazaspiro[5.5]undecan-9-yl)nonylamino)-1-hydroxyethyl)-4-hydroxybenzo[d]thiazol-2(3H)-one] was run?
**A.** 99%

**Q.** And the EC50 [2]?
**A.** 20 nM

**Q.** What about the “β2 Intrinsic activity” value [2] of the same molecule?
**A.** 0.9

**Q.** And the activation at 1 µM [3]?
**A.** 98%

**Q.** And the IC50 [4]?
**A.** 7.94 nM

**Q.** Which inhibition at 1 µM [1] does the source give for O=C(c1ccc2occc2c1)N1CCOC2(CCN(CCCCCCCCCNC[C@H](O)c3ccc(O)c4[nH]c(=O)sc34)CC2)C1 [Example 209, (R)-7-(2-(9-(4-(benzofuran-5-carbonyl)-1-oxa-4,9-diazaspiro[5.5]undecan-9-yl)nonylamino)-1-hydroxyethyl)-4-hydroxybenzo[d]thiazol-2(3H)-one] here?
**A.** 99%

**Q.** And the EC50 [2]?
**A.** 25.1 nM

**Q.** And the “β2 Intrinsic activity” value [2]?
**A.** 0.9

**Q.** What about the activation at 1 µM [3] of the same molecule?
**A.** 84%

**Q.** What about the IC50 [4] of the same molecule?
**A.** 2 nM

**Q.** Which “M3 (% inhibition at 1 μM)” value [1] does the source give for O=C(c1csc(C(F)(F)F)n1)N1CCOC2(CCN(CCOc3ccc(CNC[C@H](O)c4ccc(O)c5[nH]c(=O)sc45)cc3)CC2)C1 [Example 258] here?
**A.** 96%

**Q.** And the “β2 (% effect at 1 μM)” value [3]?
**A.** 55%

**Q.** Which results are given for CCCc1nc(C(=O)N2CCOC3(CCN(CCOc4ccc(CNC[C@H](O)c5ccc(O)c6[nH]c(=O)sc56)cc4)CC3)C2)cs1 [Example 260, (R)-4-hydroxy-7-(1-hydroxy-2-(4-(2-(4-(2-propylthiazole-4-carbonyl)-1-oxa-4,9-diazaspiro[5.5]undecan-9-yl)ethoxy)benzylamino)ethyl) benzo[d]thiazol-2(3H)-one]?
**A.** inhibition at 1 µM [1]: 93%; activation at 1 µM [3]: 56%

**Q.** Which inhibition at 1 µM [1] does the source give for O=C(c1csc(C2CCC2)n1)N1CCOC2(CCN(CCOc3ccc(CNC[C@H](O)c4ccc(O)c5[nH]c(=O)sc45)cc3)CC2)C1 [Example 261, (R)-7-(2-(4-(2-(4-(2-cyclobutylthiazole-4-carbonyl)-1-oxa-4,9-diazaspiro[5.5]undecan-9-yl)ethoxy)benzylamino)-1-hydroxyethyl)-4-hydroxy-benzo[d]thiazol-2(3H)-one] here?
**A.** 90%

**Q.** And the activation at 1 µM [3]?
**A.** 70%

**Q.** What does the source list for O=C(c1csc(C2CCCC2)n1)N1CCOC2(CCN(CCOc3ccc(CNC[C@H](O)c4ccc(O)c5[nH]c(=O)sc45)cc3)CC2)C1 [Example 262, (R)-7-(2-(4-(2-(4-(2-cyclopentylthiazole-4-carbonyl)-1-oxa-4,9-diazaspiro[5.5]undecan-9-yl)ethoxy)benzylamino)-1-hydroxyethyl)-4-hydroxy-benzo[d]thiazol-2(3H)-one]?
**A.** inhibition at 1 µM [1]: 82%; activation at 1 µM [3]: 69%

**Q.** How did the “M3 (% inhibition at 1 μM)” value [1] turn out when Cc1cc(C(=O)N2CCOC3(CCN(CCOc4ccc(CNC[C@H](O)c5ccc(O)c6[nH]c(=O)sc56)cc4)CC3)C2)sc1C [Example 263] was run?
**A.** 37%

**Q.** What about the “β2 (% effect at 1 μM)” value [3] of the same molecule?
**A.** 74%
